From patent US20030143744A1, “Method for the production of cotton somatic embryos” (priority 2000, published 2003)

Assays:
Type in all cases: cell-based, Cotton (Gossypium hirsutum L.)
[1] = tested on: embryogenic callus / somatic embryos; test: Somatic embryo histodifferentiation on differentiation medium
Experimental: Following callus initiation, calluses were sub-cultured, every 4-5 weeks, to callus initiation medium or to basal medium without growth regulators, either solidified or liquid, agitated (under orbital shaking at 110 rpm) or to the surface of filter paper (Whatman™ n° 1) bridges, inserted into macrowell plates (34 mm in diameter, well), containing 3-4 ml of liquid medium to induce somatic embryogenesis. Liquid cultures were maintained by subculture at 2 week intervals. Primary calli containing embryogenic clumps were sub-cultured to somatic embryo differentiation media. A culture medium similar to embryogenesis callus induction medium was used, but modified to contain 10 mM glutamine (Price and Smith 1979 (Planta 145: 305-307.), Cousins et al. 1991 Aust. J. Plant Physiol. 18: 481-494.), 5.4 μM NAA, 2.5 μM iP and solidified with 0.2% gelrite. The effect of abscisic acid (ABA, 0.0, 0.19, 0.38, 1.9 μM) on somatic embryo histodifferentiation was tested.

[2] = tested on: epidermal strips of Coker line 312; test: Callus initiation from epidermal strips of Coker line 312; settings: cytokinin at 4.9 μM, medium further supplemented with NAA (10.7 μM); basal region of bract
Experimental: Following disinfection, bracts were soaked in sterile distilled water, for at least 3 h, to facilitate peeling. Epidermal strips were carefully excised from the lower epidermis, using fine forceps under sterile conditions. The enzymatic treatment of epidermal strips was tested for the removal of all contaminating mesophyll and vascular tissues as follows: strips were immersed for 2-3.5 h, in a filter sterilised solution containing Linsmaier & Skoog salts (1965), Cellulysin (0.2% w/v), Hemicellulase (0.2% w/v), polyvinylpyrrolidone (PVP-40, 0.1% w/v) and pH adjusted to 5.5.
Epidermal fragments (3-10 mm size), with or without enzymatic treatment, were placed in Petri dishes (32 mm in diameter) containing 2 ml semi-solid medium, with the cuticle side either in contact with the medium or upwards.
(§1) A basal medium containing Murashige and Skoog ((1962) Physiol Plant 15: 473-497.) salts, Trolinder & Goodin ((1988a) Plant Cell Tiss Org Cult 12: 31-42.) vitamins and glucose (166.5 mM equivalent to 30 g.l^−1) was used throughout the experiments. For callus initiation, basal medium was supplemented with naphthalene acetic acid (NAA, 2.7, 5.4, 10.7 and 21.5 μM) and isopentenyladenine (iP, 1.3, 2.5 and 4.9 μM). In addition, the effects of thidiazuron (tdz), kinetin (kin) and iP, each at a concentration of 4.9 μM, were tested for their effect on callus morphology and development. Callus initiation was evaluated after 3-6 weeks. Media was used as liquid or solidified (geirite 1.6 g.l^−1 plus 7.9 mM MgCl2). Twenty to thirty epidermal strips were cultured per dish.
The effect of shading of the culture dishes on callus initiation was also evaluated. One or two dishes containing a layer of culture medium (2 ml) were placed on the top of dishes containing the cultures. Dishes were incubated on full light (26.3 μmol. m^−2.s^−1) or under reduced light irradiance, respectively, under shade from 1 dish (21.0 μmol. m^−2.s^−1) or shading from two dishes (15.8 μmol. m^−2.s^−1).

[3] = tested on: both Coker lines (312 and 315); test: Callus initiation, growth and morphology by growth regulators
Experimental: as §1
Epidermal strips were excised from the whole bract of Coker line 315 and cultured on medium containing NAA (2.7, 5.4, 10.7 and 21.5 μM) and iP (1.3, 2.5 and 4.9 μM). Two to four independent experiments were carried out and 1300 epidermal strips were used in these studies.
Callus initiation, growth and morphology from both Coker lines (312 and 315) were influenced by the growth regulators in the callus initiation medium. […] In addition, there were no statistical significant differences in callus induction frequency within the remaining range of treatments tested.

| SMILES | somatic embryo differentiation ([1]; ABA 0.0 or 1.9 μM) | somatic embryo differentiation ([1]; ABA 0.19-0.38 μM, after 3-4 weeks) | callus induction [2] [%] | time to similar size of callus ([3]; iP 1.2 μM) [weeks] | time to macroscopic calluses ([3]; iP 4.9 μM) |
| --- | --- | --- | --- | --- | --- |
| CC1=CC(=O)CC(C)(C)[C@@]1(O)/C=C/C(C)=C\C(=O)O [ABA, abscisic acid] | less uniform | Synchronised embryo differentiation and improved somatic embryo uniformity |  |  |  |
| CC(C)=CCNc1ncnc2nc[nH]c12 [iP, isopentenyladenine] |  |  | 36.3±15.8 | 8 | 4-5 weeks |
| O=C(Nc1ccccc1)Nc1cnns1 [Tdz, thidiazuron] |  |  | 31.3±4.5 |  |  |
| c1coc(CNc2ncnc3[nH]cnc23)c1 [Kin, kinetin] |  |  | 8.6±0.7 |  |  |
